Source: ChEMBL document CHEMBL1268924, “Design, solid-phase synthesis, and biological evaluation of novel 1,5-diarylpyrrole-3-carboxamides as carbonic anhydrase IX inhibitors” (Bioorg Med Chem, 2010)

What was measured:
Carbonic anhydrase 9 = Carbonic anhydrase 9 (Homo sapiens, UniProt Q16790); test: Inhibition of human carbonic anhydrase 9 by stopped flow CO2 hydration assay
Carbonic anhydrase 1 = Carbonic anhydrase 1 (Homo sapiens, UniProt P00915); test: Inhibition of human carbonic anhydrase 1 by stopped flow CO2 hydration assay
Chain of Carbonic anhydrase 1 (P00915 whole entry): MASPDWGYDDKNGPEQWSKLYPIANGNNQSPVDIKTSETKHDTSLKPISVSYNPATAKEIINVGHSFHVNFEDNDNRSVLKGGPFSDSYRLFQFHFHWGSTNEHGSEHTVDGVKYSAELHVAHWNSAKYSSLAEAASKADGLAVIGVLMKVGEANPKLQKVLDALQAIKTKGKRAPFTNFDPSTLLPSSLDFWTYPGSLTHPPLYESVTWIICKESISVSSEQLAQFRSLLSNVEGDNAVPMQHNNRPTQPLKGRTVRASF

Row | Ki (Carbonic anhydrase 9) | Ki (Carbonic anhydrase 1) | SMILES
1 | 207 nM |  | Cc1c(C(=O)NCCN2CCN(C)CC2)cc(-c2ccc(-c3ccccc3)cc2)n1-c1ccc(S(N)(=O)=O)cc1
2 | 187 nM |  | Cc1c(C(=O)NCCN2CCOCC2)cc(-c2ccc(-c3ccccc3)cc2)n1-c1ccc(S(N)(=O)=O)cc1
3 | 135 nM |  | Cc1c(C(=O)N2CCN(C)CC2)cc(-c2ccccc2)n1-c1ccc(S(N)(=O)=O)cc1
4 | 10 nM |  | Cc1c(C(=O)NCCN(C)C)cc(-c2ccc3ccccc3c2)n1-c1ccc(S(N)(=O)=O)cc1
5 | 11 nM |  | Cc1c(C(=O)NCCCN(C)C)cc(-c2ccc3ccccc3c2)n1-c1ccc(S(N)(=O)=O)cc1
6 |  | > 10000 nM | Cc1c(C(=O)N2CCN(C)CC2)cc(-c2ccc3ccccc3c2)n1-c1ccc(S(N)(=O)=O)cc1
7 | 125 nM |  | Cc1c(C(=O)NCCN2CCCCC2)cc(-c2ccc3ccccc3c2)n1-c1ccc(S(N)(=O)=O)cc1
8 | 126 nM |  | Cc1c(C(=O)NCCN2CCN(C)CC2)cc(-c2ccc3ccccc3c2)n1-c1ccc(S(N)(=O)=O)cc1
9 | 147 nM |  | Cc1c(C(=O)NCCCN2CCN(C)CC2)cc(-c2ccc3ccccc3c2)n1-c1ccc(S(N)(=O)=O)cc1
10 | 22 nM |  | Cc1c(C(=O)NCCN2CCOCC2)cc(-c2ccc3ccccc3c2)n1-c1ccc(S(N)(=O)=O)cc1
11 | 68 nM |  | Cc1c(C(=O)N2CCN(C)CC2)cc(-c2ccc(-c3ccccc3)cc2)n1-c1ccc(S(N)(=O)=O)cc1
12 | 153 nM |  | Cc1c(C(=O)NCCN2CCCC2)cc(-c2ccc(-c3ccccc3)cc2)n1-c1ccc(S(N)(=O)=O)cc1
13 | 198 nM |  | Cc1c(C(=O)NCCCN2CCN(C)CC2)cc(-c2ccc(-c3ccccc3)cc2)n1-c1ccc(S(N)(=O)=O)cc1

The remaining lines, values behind:

Row | SMILES | Ki (Carbonic anhydrase 9) | Ki (Carbonic anhydrase 1)
14 | Cc1c(C(=O)NCCCN2CCOCC2)cc(-c2ccc(-c3ccccc3)cc2)n1-c1ccc(S(N)(=O)=O)cc1 | 101 nM | 
15 | Cc1c(C(=O)NCCN(C)C)cc(-c2ccccc2)n1-c1ccc(S(N)(=O)=O)cc1 | 242 nM | 
16 | Cc1c(C(=O)NCCCN(C)C)cc(-c2ccccc2)n1-c1ccc(S(N)(=O)=O)cc1 | 131 nM | 
17 | Cc1c(C(=O)NCCN2CCCCC2)cc(-c2ccccc2)n1-c1ccc(S(N)(=O)=O)cc1 | 89 nM | 
18 | Cc1c(C(=O)NCCN2CCOCC2)cc(-c2ccccc2)n1-c1ccc(S(N)(=O)=O)cc1 | 200 nM | 
19 | Cc1c(C(=O)NCCN2CCCC2)cc(-c2ccc3ccccc3c2)n1-c1ccc(S(N)(=O)=O)cc1 | 30 nM | 
20 | Cc1c(C(=O)NCCCN2CCOCC2)cc(-c2ccc3ccccc3c2)n1-c1ccc(S(N)(=O)=O)cc1 | 137 nM | 
21 | Cc1c(C(=O)NCCCN(C)C)cc(-c2ccc(-c3ccccc3)cc2)n1-c1ccc(S(N)(=O)=O)cc1 | 111 nM | 
22 | Cc1c(C(=O)NCCN2CCCCC2)cc(-c2ccc(-c3ccccc3)cc2)n1-c1ccc(S(N)(=O)=O)cc1 | 167 nM | 
